Tests used:
[1] = test system: p16(Ink4a) in mLF and mVAT fibroblasts; test: Modulation of p16(Ink4a) in mouse lung and visceral adipose tissue-derived fibroblasts; format: cell-based; conditions: for Modulation of p16(Ink4a): mLF and mVAT Senescent: 20Gy irradiation for senescence induction; for Modulation of p16(Ink4a): mLF and mVAT Proliferating: without irradiation
Excerpt: We next sought to determine whether immunomodulatory agents, and other small molecules, were capable of selectively modulating p16(Ink4a) expression in SAMs by comparing their effects on p16 expression in SAMs to that of mouse lung fibroblasts (mLF) and mouse visceral adipose tissue-derived fibroblasts (mVAT). […] Immunomodulatory agents cause little to no change in p16 expression in fibroblasts. For example, mouse fibroblasts are reported to respond to LPS and IL-4 (expressing TLR4 and IL-4R, respectively), yet these agents are unable to modulate p16 in fibroblasts.

[2] = test system: chronologically aging mice; test: Survival and frailty index of chronologically aging mice; format: in vivo, mouse; conditions: for survival rates vs control groups: OT-82: after 6 courses, 111 weeks of age, asenins: treated weeks 77-97, at 112 weeks of age
Description: FIG. 11. OT-82 effects on survival and frailty index of old mice. (A) Male and female mice were treated with OT-82 or with vehicle alone as a negative control. Survival was measured over the course of six treatments.
FIG. 12. Effects of asenins TA-3899 and TA-4812 on survival and frailty index of old mice. Results are provided on a background of FI of mice of the similar age, aged normally without any treatments (black color). Difference between FI of males receiving 3899 and intact mice is statistically significant (p=0.02).
Frailty Index (FI) was determined for individual mice as described previously (Antoch et al. Aging. 2017; 9: 1-12) using a 26 week-old group as a “young mouse” reference. For each mouse, various parameters were measured. These parameters include non-invasive measurements, including age, body weight, grip strength, diastolic blood pressure, and tail blood flow. Additional blood chemistry measurements were also determined, including white blood cell count, neutrophil count, neutrophil percentage, lymphocyte percentage, monocyte percentage, eosinophil percentage, red blood cell count, hemoglobin, hematocrit, mean corpuscular volume, mean corpuscular hemoglobin, mean corpuscular hemoglobin concentration, platelet count, and mean platelet volume. For each parameter mean value and standard deviation were calculated. Animals differing by more than one standard deviation (STDEV) from mean value in any single parameter were excluded from the reference group. Values for each measured parameter were compared with corresponding values for the reference group and assigned a score. The number of deficits an individual mouse expressed was calculated as a ratio of total number of parameters measured and this value is referred to as the frailty index.
Asenins TA-3899 and TA-4812 were evaluated for their effects on survival and frailty index in a model of chronologic aging mice. Treatment lasted for 20 weeks (weeks 77-97 of age). […] Frailty index of males was measured at week 109.

[3] = test system: adipose-derived mesenchymal stromal cells (AdMSC) from p16Ink4a/Luc mice; test: Luciferase and β-galactosidase activities in senescent and proliferating adipose-derived mesenchymal stromal cells; format: cell-based, mouse
Excerpt: FIG. 10. Elevated p16(Ink4a) and β-galactosidase is regulated by immunomodulatory agents in macrophages, but not in mesenchymal SCs. Primary cultures of adipose-derived mesenchymal stromal cells (AdMSC) isolated from p16^Ink4a/Luc mice were irradiated (20 Gy) and cultured for 10 days for senescence induction. Mock irradiated cells were used as a proliferating cell control. Response of senescent and proliferating AdMSCs to immunomodulatory agents were compared to that of peritoneal lavage cells elicited by our alginate bead model. A-D) Dose-response curves of LPS (top panels: […]) and Poly(I:C) (bottom panels: C&D) on p16(Ink4a) promoter-dependent luciferase activity (left panels: A&C) and beta-galactosidase activity measured via 4-MUG hydrolysis (right panels: B&D) after 72 hr treatment. No effect on viability was observed via CyQuant Direct assay (>80% viability). Results are shown as the mean±standard deviation for at least 3 experiments.
Primary cultures of adipose-derived mesenchymal stromal cells (mAdMSC) were established from the stromal vascular fraction of inguinal adipose tissues of young p16^LUC mice, as described. Isolated adherent cultures were maintained in DMEM/F12 medium supplemented with 15% FBS and 1× anti-biotic/anti-mycotic solution (Thermo Fisher Scientific) in a tri-gas tissue culture incubator at 37° C., 5% CO2 and 3% O2. Medium was change twice per week, and cell passaging performed when cells reached ˜80-90% confluency. For induction of senescence, passage 1 cells were irradiated in suspension at 20 Gy, and replated cultures were maintained at 21% 02.
We investigated whether the mechanisms regulating the expression of these traits in macrophages were similar to those found in SCs. Using cells isolated from p16^Ink4a/Luc mice, the dose-dependent response of luciferase and β-galactosidase activities to immunomodulatory stimuli in macrophages was compared to that of proliferating and irradiation-induced senescent adipose-derived mesenchymal stromal cells. […] LPS stimulation of alginate bead model-elicited macrophages reduced luciferase activity, with maximal inhibition (˜85%) observed at concentrations ≥1 ng/mL (FIG. 10A). In addition, β-galactosidase activity was reduced by 40% at 10 ng/mL (FIG. 10B).
In contrast, luciferase and β-galactosidase activities were unaltered in senescent and proliferating mesenchyme in response to LPS (up to 1 μg/mL) (FIGS. 10A&B).

Poly(I:C)
Modulation of p16(Ink4a): mLF and mVAT Senescent [1]: no change
Modulation of p16(Ink4a): mLF and mVAT Proliferating [1]: no change

O=C(NCCCc1cn[nH]c1)c1ccc(-c2ccncc2)c(C#Cc2ccc(F)cc2)c1 [OT-82]
Modulation of p16(Ink4a): mLF and mVAT Senescent [1]: no change
Modulation of p16(Ink4a): mLF and mVAT Proliferating [1]: no change
survival rates vs control groups [2]: no effects on survival rates
frailty index (FI) of males ([2]; OT-82, chronically aged mice): positive effects
survival of treated males ([2]; after 6 courses of treatment, 111 weeks of age (55% in vehicle control group)): 45%
survival of treated females ([2]; after 6 courses of treatment, 111 weeks of age (60% in vehicle group)): 65%

IL-13: M2-polarizing cytokine
Modulation of p16(Ink4a): mLF and mVAT Senescent [1]: no change
Modulation of p16(Ink4a): mLF and mVAT Proliferating [1]: no change
p16(Ink4a) response of senescent vs proliferating mesenchymal cells [3]: lacking a differential response

COc1ccc(C2CC(=NO)c3c(SCc4ccccc4)sc(C(=O)NCc4cccc(F)c4)c3C2)cc1 (stereo not shown) [Example A1.6, 3-(Benzylthio)-N-(3-fluorobenzyl)-4-(hydroxyimino)-6-(4-methoxyphenyl)-4,5,6,7-tetrahydrobenzo[c]thiophene-1-carboxamide]
Modulation of p16(Ink4a): mLF and mVAT Senescent [1]: no change
Modulation of p16(Ink4a): mLF and mVAT Proliferating [1]: no change
survival rates vs control groups [2]: no statistical significance

IL-4: M2-polarizing cytokine
Modulation of p16(Ink4a): mLF and mVAT Senescent [1]: no change
Modulation of p16(Ink4a): mLF and mVAT Proliferating [1]: no change
p16(Ink4a) response of senescent vs proliferating mesenchymal cells [3]: lacking a differential response

IFN-α
p16(Ink4a) response of senescent vs proliferating mesenchymal cells [3]: lacking a differential response

B1: IFN-γ: type II interferon, M1-inducing agent (protein, UniProt P01579 24-161, looked up)
Interferon gamma: QDPYVKEAENLKKYFNAGHSDVADNGTLFLGILKNWKEESDRKIMQSQIVSFYFKLFKNFKDDQSIQKSVETIKEDMNVKFFNSNKKKRDDFEKLTNYSVTDLNVQRKAIHELIQVMAELSPAAKTGKRKRSQMLFRG
p16(Ink4a) response of senescent vs proliferating mesenchymal cells [3]: lacking a differential response

Source: patent US20200123127A1, “REMOVAL OF SENESCENCE-ASSOCIATED MACROPHAGES” (EVERON BIOSCIENCES, INC., priority 2016, published 2020)
